Results reported in patent US20250269046A1, “CELLULAR UPTAKE OF LARGE BIOMOLECULES ENABLED BY CELL-SURFACE-REACTIVE CELL-PENETRATING PEPTIDE ADDITIVES” (FORSCHUNGSVERBUND BERLIN E.V., priority 2021, published 2025).

Tested on: HeLa CLL-2 cells
Assay: WST-1 cell viability assay
Format: cell-based
Conditions: 10 μM
Method: Absorbance at 440 nm is indicative of cellular metabolic activity in the processing of WST-1 to the absorbing Formazan. […] The cells were treated with either 5 μM NLS-mCherry-R10 II in DMEM alone (lower panel) or with 10 μM TNB-R10 5 in DMEM (upper panel). After one-hour incubation, cells were washed again in DMEM and treated with 5 μM Calcein AM in DMEM. The morphology of the cells as shown in the differential interference contrast (DIC) images is also unaffected. Scale bars 50 μm. c, Co-delivery of NLS-mCherry-R10 II in presence of Sytox Blue dead cell stain with or without added TNB-R10 5. Scale bars 20 μm.

CN[C@@H]1C[C@H]2O[C@@](C)([C@@H]1OC)n1c3ccccc3c3c4c(c5c6ccccc6n2c5c31)C(=O)NC4 [staurosporine]
effect on cellular metabolic activity (positive control): significant, detrimental effect
